Measured values from PMC8179358, “An explicitly designed paratope of amyloid-β prevents neuronal apoptosis in vitro and hippocampal damage in rat brain” (Chemical Science, 2020).

Assays:
Type in all cases: biochemical
[1] = Carboxyfluorescein dye leakage from LUVs, Aβ42; conditions: Aβ42 50 μM
Method: Carboxyfluorescein dye loaded Large Unilamellar Vesicles (LUVs) preparation LUVs were prepared using a mixture of DMPC, Cholesterol, and GM1 (68:30:2, molar). Lipids were dissolved in chloroform and methanol (2:1, 2 mM) in a glass vessel, and solvents were evaporated using nitrogen gas to make lipid films.3 The lipid films were hydrated with 500 µL of carboxyfluorescein (CF) solution (200 µM) in 50mM HEPES buffer of pH 7.4. Then, the solution was vortexed vigorously for 30 min for emulsification. Then the glass vial was dipped into the liquid nitrogen for instant cooling, and after 5 min the frozen solution was dipped into a water bath at 50-60 °C for freeze-thawing.4This step was repeated five times. The excess dye was removed by ultracentrifugation at 20000 rpm, the supernatant […]
Carboxyfluorescein dye loaded Large Unilamellar Vesicles (LUVs) Leakage Study For leakage study, peptide and lipids were taken in 1:20 molar ratios, and the dye release was monitored by fluorescence emission. Emission was measured at 516 nm, and excitation at 485 nm, 3 nm of bandwidth on a Fluoromax-4, Horiba instrument. The complete dye release from the vesicle was obtained using Triton X-100, and the final fluorescence was measured. The % leakage was calculated as, % 𝐿𝑒𝑎𝑘𝑎𝑔𝑒 = (𝑂𝑏𝑠𝑒𝑟𝑣𝑒𝑑 𝑓𝑙𝑢𝑜𝑟𝑒𝑠𝑐𝑒𝑛𝑐𝑒 –𝑖𝑛𝑖𝑡𝑖𝑎𝑙 𝑓𝑙𝑢𝑜𝑟𝑒𝑠𝑐𝑒𝑛𝑐𝑒) × 100 % … ..(4) (𝑇𝑜𝑡𝑎𝑙 𝑓𝑙𝑢𝑜𝑟𝑒𝑠𝑐𝑒𝑛𝑐𝑒 ‒ 𝑖𝑛𝑖𝑡𝑖𝑎𝑙 𝑓𝑙𝑢𝑜𝑟𝑒𝑠𝑐𝑒𝑛𝑐𝑒) […]

Aβ42 [2] = assay: DLS of Aβ42 aggregates; conditions: untreated Aβ42 50 μM
Method: Dynamic light scattering (DLS) measurements
DLS1,2 measurements were performed with the different Aβ42peptide samples (oligomers and mature fibrils) on a Malvern nano zetasizer (Malvern, UK) using a laser source with λ=633 nm and a detector at a scattering angle of θ = 173 degrees.
for the ThT assay, in the absence of ThT dye, for 1h, 5h, 10h and 20h min to generate oligomers and mature fibrils, respectively and the hydrodynamic diameter of them was immediately examined by DLS.
Prior to the analysis, samples were filtered through 0.45 µm PVDF membrane. The samples were placed in a disposable cuvette and held at the corresponding temperature during the analysis. For each sample, the analyses were recorded three times with 11 sub-runs using the multimodal mode. The Z-average diameter was calculated from the correlation function using Malvern technology software. g.

Aβ42 [3] = assay: TEM of early events of Aβ42 aggregation; conditions: absence of SP1; 1, 5, 10, 20 h
Method: Transmission Electron Microscopy (TEM)
10μL aliquot from the stock peptide solution after incubation of 10 days (7 days for inhibition study) was added over the carbon-coated copper grid. Then 2% uranyl acetate solution (10μL) was added onto it and allowed to float for 1 min. The excess solution was removed using a blotting paper. The sample was dried at room temperature and kept in desiccators before taking TEM analysis on JEOL (Model: JEM 2100)

## Aβ42: Aβ42 peptide
[1]; absence of SP1, 5 h aged
  dye leakage from LUVs: ~55%
[1]; absence of SP1, 10 h aged
  dye leakage from LUVs: ~23%
Aβ42 [2]; 1 h
  hydrodynamic diameter: ~8 nm
Aβ42 [2]; 10 h
  hydrodynamic diameter: ~825 nm
Aβ42 [2]; 20 h
  hydrodynamic diameter: ~940 nm
Aβ42 [3]
  morphology of Aβ42 aggregates (TEM): exhibited smaller aggregates at 1 h or 5 h
